IC50, EC50 and AUC data for 20 compounds are collected here from US10301284B2, “Therapeutic inhibitory compounds” (LifeSci Pharmaceuticals, Inc., priority 2016, dated 2019).

Like-named read-outs stand apart in the source and are kept apart here. Where only a bound is given, the exact number is not on record here.

In data set [1] the target is T1, human Plasma Kallikrein (Homo sapiens (Human), UniProt P03952). Kind of data set: In vitro enzyme inhibition of human plasma kallikrein (Pro-Phe-Arg-AMC cleavage). Conditions: human plasma kallikrein, PFR-AMC substrate, 37° C.; read-out: hPK IC50. The format is biochemical. In outline:
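Human plasma kallikrein preincubated 5 min at 37 °C with compound in 50 mM Tris-HCl pH 7.5, 150 mM NaCl, 0.01% Triton X-100. Reaction started with Pro-Phe-Arg-AMC, fluorescence read every 43 s for 1 h at 37 °C. IC50 from highest mean velocity over 20 reads (~15 min).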

Data set [2] addresses T1, human Plasma Kallikrein. Kind of data set: Human whole blood kallikrein inhibition (ellagic acid-activated human plasma, Z-FR-2-AMC substrate). The data set is classed as biochemical. How it is done: The ability of the compounds disclosed herein to inhibit human plasma kallikrein activity was quantified according to the procedures below.
All dilutions were prepared in an assay buffer comprising 50 mM Tris-HCl pH 7.2, 150 mM NaCl, and 0.01% Triton X-100.
Human plasma was thawed on ice and centrifuged for 15 min at 4° C. to remove platelets. A 1 mM stock solution of ellagic acid was diluted to 8 μM and mixed with human plasma, after removing platelets, at a ratio of 1:0.8. The mixture of human plasma and ellagic acid was further diluted 32-fold in the assay buffer, to yield the final mixture for use in the inhibition assay.
A 22.5 μL volume of the final mixture of human plasma and ellagic acid was added to a 96-well microwell plate and the plate was incubated for 15 min at 37° C.
The test compound solution was prepared to provide final concentrations of 20 μM, 5 μM, 1.25 μM, 312.5 nM, 78.125 nM, 19.531 nM, 4.883 nM, 1.221 nM, 0.305 nM, and 0.076 nM. Each test compound concentration was tested in duplicates.
In addition to the inhibitor control and test wells, the 96 well assay plate included positive control wells which contain the mixture of human plasma and ellagic acid without test compounds, and background wells which contain neither the mixture of human plasma and ellagic acid nor the test compounds. The total volume of liquid in positive control and background wells was brought up to 35 μL using the assay buffer.
The assay plate containing test compounds mixed with human plasma and ellagic acid and appropriate controls was incubated at 37° C. for 5 min. A 10 mM stock solution of substrate Z-FR-2-AMC was diluted to 133.2 μM in the assay buffer, and 15 μL of the diluted substrate was added to each well, to yield a final substrate concentration of 40 μM in each well. The reagents were mixed by shaking the plate gently for 30 sec.
The enzyme reaction was quantified by immediate kinetic reading of the assay plate using excitation/emission wavelengths of 330 nm/440 nm respectively. Fluorescence intensity was recorded for 60 min, using a time interval of 43 sec.
The inhibition activity of the test compounds were evaluated using the IC50 values, calculated according to the dose-response curve of the test compounds, fitted using the “log(inhibitor)−response(variable slope)” equation in GraphPadPrism software (GraphPad Software, Inc.).
The percentage inhibition (EC50) was calculated using the following equation:
[formula] where, Mean(BG) is the average value of the fluorescence intensity of the background wells and Mean(PC) is the average value of the fluorescence intensity of the positive control wells.

Data set [3] in a line: Pharmacokinetic evaluation, oral exposure in rats. The format is in vivo. To be noted: male Sprague-Dawley rats, single oral dose 10 mg/kg via oral gavage, plasma. The method, then: Pharmacokinetic studies of select compounds were performed to assess the pharmacokinetic properties. Male Sprague-Dawley rats were administered a single oral dose of the test compound at 10 mg/kg (dose concentration: 2 mg/mL, dose volume: 5 ml/kg) via oral gavage. Blood samples were collected via jugular vein at pre-dose, post-dose 5 min, 15 min, 30 min, 1 h, 2 h, 4 h, 6 h, 8 h, 10 h and 24 h, and centrifuged (8000 rpm for 6 minutes at 2-8° C.). The resulting plasma fractions were analyzed by LC/MS/MS to determine the concentration of the test compound.

Setting [4] is: human plasma activated with ellagic acid, Z-FR-2-AMC 40 μM, 37° C., read-out: HWB EC50.

T1 sequence (P03952 391-638 limits assumed): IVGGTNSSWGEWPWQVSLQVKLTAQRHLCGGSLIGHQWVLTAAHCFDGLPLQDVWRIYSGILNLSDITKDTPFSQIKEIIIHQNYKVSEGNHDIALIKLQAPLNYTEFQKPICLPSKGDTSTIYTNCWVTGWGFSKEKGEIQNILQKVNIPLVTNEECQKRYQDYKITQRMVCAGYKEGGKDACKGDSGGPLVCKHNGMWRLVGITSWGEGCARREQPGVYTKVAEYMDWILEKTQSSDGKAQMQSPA
T1 sequence (P03952 20-390 partner limits assumed): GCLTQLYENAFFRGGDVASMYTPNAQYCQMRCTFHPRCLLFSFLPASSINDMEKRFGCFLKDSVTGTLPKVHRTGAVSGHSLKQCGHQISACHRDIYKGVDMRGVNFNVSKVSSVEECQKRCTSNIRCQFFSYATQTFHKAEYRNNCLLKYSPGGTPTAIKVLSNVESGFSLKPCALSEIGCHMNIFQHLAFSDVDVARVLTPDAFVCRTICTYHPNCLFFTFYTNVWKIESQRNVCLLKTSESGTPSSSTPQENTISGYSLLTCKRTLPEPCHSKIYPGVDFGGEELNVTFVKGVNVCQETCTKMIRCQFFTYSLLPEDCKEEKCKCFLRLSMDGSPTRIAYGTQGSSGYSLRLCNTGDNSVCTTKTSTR

“2-amino-N-((6-amino-2,4-dimethylpyridin-3-yl)methyl)-1-((3-chloroquinolin-6-yl)methyl)-1H-imidazole-4-carboxamide [Example 24]”: in data set [1], the IC50 was less than 0.1 µM. Moreover, the EC50 in data set [2] (setting [4]) was less than 0.1 µM. The AUC entry in data set [3] is on record as “B (>100 ng · h/mL to ≤1000 ng · h/mL)”.
On to “4-amino-N-((6-amino-2,4-dimethylpyridin-3-yl)methyl)-1-((3-chloroquinolin-6-yl)methyl)-1H-pyrazole-3-carboxamide [Example 25]”, for which the IC50 in data set [1] is less than 0.1 µM. The EC50 in data set [2] (setting [4]) is less than 0.1 µM. Besides, the AUC entry in data set [3] is reported as “C (>1000 ng · h/mL to ≤10,000 ng · h/mL)”.
With `Cc1cc(N)nc(C)c1CNC(=O)c1ccn(Cc2ccc3ncc(Cl)cc3c2)n1` [Example 1, N-((6-amino-2,4-dimethylpyridin-3-yl)methyl)-1-((3-chloroquinolin-6-yl)methyl)-1H-pyrazole-3-carboxamide], in data set [2] (setting [4]), the EC50 is less than 0.1 µM. The AUC in data set [3] (rat, read-out: AUC) lay within 100 to 1000 ng·h/mL.
Regarding `Cc1cc(N)nc(C)c1CNC(=O)c1cnn(Cc2ccc3ncc(Cl)cc3c2)c1` [Example 2, N-((6-amino-2,4-dimethylpyridin-3-yl)methyl)-1-((3-chloroquinolin-6-yl)methyl)-1H-pyrazole-4-carboxamide], the IC50 in data set [1] was less than 0.1 µM. Further, the EC50 in data set [2] (setting [4]) was less than 0.1 µM. For the same compound, the AUC in data set [3] (rat, read-out: AUC) fell in the range of 100 to 1000 ng·h/mL.
For the compound `Cc1cc(N)nc(C)c1CNC(=O)c1cn(Cc2ccc3ncc(Cl)cc3c2)cn1` [Example 3, N-((6-amino-2,4-dimethylpyridin-3-yl)methyl)-1-((3-chloroquinolin-6-yl)methyl)-1H-imidazole-4-carboxamide], in data set [1], the IC50 was less than 0.1 µM. The concentration for a half-maximal effect (EC50) in data set [2] (setting [4]) was less than 0.1 µM. In data set [3] (rat, read-out: AUC), the AUC was 100 to 1000 ng·h/mL.
In the case of `Cc1cc(N)nc(C)c1CNC(=O)c1ncn(Cc2ccc3ncc(Cl)cc3c2)n1` [Example 4, N-((6-amino-2,4-dimethylpyridin-3-yl)methyl)-1-((3-chloroquinolin-6-yl)methyl)-1H-1,2,4-triazole-3-carboxamide], the IC50 in data set [1] is less than 0.1 µM. In addition, the EC50 in data set [2] (setting [4]) is less than 0.1 µM. Besides, in data set [3] (rat, read-out: AUC), the area under the curve (AUC) is less than 100 ng·h/mL.
As to `Cc1cc(N)nc(C)c1CNC(=O)c1cnc(Cc2ccc3ncc(Cl)cc3c2)[nH]1` [Example 5, N-((6-amino-2,4-dimethylpyridin-3-yl)methyl)-2-((3-chloroquinolin-6-yl)methyl)-1H-imidazole-5-carboxamide], the IC50 in data set [1] was less than 0.1 µM. Further, the concentration for a half-maximal effect (EC50) in data set [2] (setting [4]) is less than 0.1 µM. Also, the AUC result in data set [3] is recorded as “BLQ”.
For `Cc1cc(N)nc(C)c1CNC(=O)c1nc(Cc2ccc3ncc(Cl)cc3c2)no1` [Example 6, N-((6-amino-2,4-dimethylpyridin-3-yl)methyl)-3-((3-chloroquinolin-6-yl)methyl)-1,2,4-oxadiazole-5-carboxamide], in data set [1], the concentration for half-maximal inhibition (IC50) was less than 0.1 µM. In addition, in data set [2] (setting [4]), the EC50 is less than 0.1 µM. For the same compound, the AUC in data set [3] (rat, read-out: AUC) was 100 to 1000 ng·h/mL.
For `Cc1cc(N)nc(C)c1CNC(=O)c1noc(Cc2ccc3ncc(Cl)cc3c2)n1` [Example 7, N-((6-amino-2,4-dimethylpyridin-3-yl)methyl)-5-((3-chloroquinolin-6-yl)methyl)-1,2,4-oxadiazole-3-carboxamide], the IC50 in data set [1] is less than 0.1 µM. The EC50 in data set [2] (setting [4]) was less than 0.1 µM. For the same compound, in data set [3] (rat, read-out: AUC), the AUC was in the range of 1000 to 10000 ng·h/mL.
On to `Cc1cc(N)nc(C)c1CNC(=O)c1nc(Cc2ccc3ncc(Cl)cc3c2)n2ccccc12` [Example 9, N-((6-amino-2,4-dimethylpyridin-3-yl)methyl)-3-((3-chloroquinolin-6-yl)methyl)imidazo[1,5-a]pyridine-1-carboxamide], for which the IC50 in data set [1] is less than 0.1 µM. For the same compound, in data set [2] (setting [4]), the half-maximal effective concentration (EC50) was less than 0.1 µM. Also, the AUC in data set [3] (rat, read-out: AUC) was in the range of 100 to 1000 ng·h/mL.
On to `Cc1cc(N)nc(C)c1CNC(=O)c1cn(Cc2ccc3ncc(Cl)cc3c2)nn1` [Example 10, N-((6-amino-2,4-dimethylpyridin-3-yl)methyl)-1-((3-chloroquinolin-6-yl)methyl)-1H-1,2,3-triazole-4-carboxamide], for which the IC50 in data set [1] is less than 0.1 µM. Further, the EC50 in data set [2] (setting [4]) is less than 0.1 µM. Further, the AUC in data set [3] (rat, read-out: AUC) is 1000 to 10000 ng·h/mL.
Turning to `Cc1cc(N)nc(C)c1CNC(=O)c1cn(Cc2ccc3ncc(Cl)cc3c2)c2ncccc12` [Example 12, N-((6-amino-2,4-dimethylpyridin-3-yl)methyl)-1-((3-chloroquinolin-6-yl)methyl)-1H-pyrrolo[2,3-b]pyridine-3-carboxamide], in data set [1], the IC50 is less than 0.1 µM. Further, in data set [2], the EC50 is less than 0.1 µM. In addition, the AUC in data set [3] (rat, read-out: AUC) was in the range of 100 to 1000 ng·h/mL.
For the compound `Cc1cc(N)nc(C)c1CNC(=O)c1nn(Cc2ccc3ncc(Cl)cc3c2)c2ccccc12` [Example 13, N-((6-amino-2,4-dimethylpyridin-3-yl)methyl)-1-((3-chloroquinolin-6-yl)methyl)-1H-indazole-3-carboxamide], in data set [1], the IC50 is less than 0.1 µM. In data set [2], this compound displayed an EC50 of less than 0.1 µM. In addition, the AUC in data set [3] (rat, read-out: AUC) is 100 to 1000 ng·h/mL.
Turning to `Cc1cc(N)nc(C)c1CNC(=O)c1cn(Cc2ccc3ncc(Cl)cc3c2)nc1C(F)(F)F` [Example 15, N-((6-amino-2,4-dimethylpyridin-3-yl)methyl)-1-((3-chloroquinolin-6-yl)methyl)-3-(trifluoromethyl)-1H-pyrazole-4-carboxamide], the half-inhibitory concentration (IC50) in data set [1] was less than 0.1 µM. The EC50 in data set [2] (setting [4]) was less than 0.1 µM. Also, the area under the curve (AUC) in data set [3] (rat, read-out: AUC) was 1000 to 10000 ng·h/mL.
Take `Cc1cc(N)nc(C)c1CNC(=O)c1cn(Cc2ccc3ncc(Cl)cc3c2)c2cnccc12` [Example 16, N-((6-amino-2,4-dimethylpyridin-3-yl)methyl)-1-((3-chloroquinolin-6-yl)methyl)-1H-pyrrolo[2,3-c]pyridine-3-carboxamide]: the IC50 in data set [1] was less than 0.1 µM. For the same compound, the EC50 in data set [2] is less than 0.1 µM. Also, the AUC in data set [3] (rat, read-out: AUC) was 100 to 1000 ng·h/mL.
`Cc1cc(N)nc(C)c1CNC(=O)c1cn(Cc2ccc3ncc(Cl)cc3c2)nc1N` [Example 17, 3-amino-N-((6-amino-2,4-dimethylpyridin-3-yl)methyl)-1-((3-chloroquinolin-6-yl)methyl)-1H-pyrazole-4-carboxamide]: in data set [1], the IC50 was less than 0.1 µM. Besides, in data set [2] (setting [4]), the EC50 was less than 0.1 µM. Also, the AUC in data set [3] (rat, read-out: AUC) lay in the range of 100 to 1000 ng·h/mL.
Consider `CC(=O)Nc1cn(Cc2ccc3ncc(Cl)cc3c2)nc1C(=O)NCc1c(C)cc(N)nc1C` [Example 19, 4-acetamido-N-((6-amino-2,4-dimethylpyridin-3-yl)methyl)-1-((3-chloroquinolin-6-yl)methyl)-1H-pyrazole-3-carboxamide], for which the IC50 in data set [1] was less than 0.1 µM. Also, the 50% effective concentration (EC50) in data set [2] (setting [4]) was less than 0.1 µM. Besides, the exposure (AUC) in data set [3] (rat, read-out: AUC) lay in the range of 100 to 1000 ng·h/mL.
Turning to `Cc1cc(N)nc(C)c1CNC(=O)c1nc(N)n(Cc2ccc3ncc(Cl)cc3c2)n1` [Example 20, 5-amino-N-((6-amino-2,4-dimethylpyridin-3-yl)methyl)-1-((3-chloroquinolin-6-yl)methyl)-1H-1,2,4-triazole-3-carboxamide], in data set [1], the IC50 is less than 0.1 µM. In addition, in data set [2] (setting [4]), the EC50 was less than 0.1 µM. The AUC in data set [3] (rat, read-out: AUC) is less than 100 ng·h/mL.
`Cc1cc(N)nc(C)c1CNC(=O)c1cnn(Cc2ccc3ncc(Cl)cc3c2)n1` [Example 21, N-((6-amino-2,4-dimethylpyridin-3-yl)methyl)-2-((3-chloroquinolin-6-yl)methyl)-2H-1,2,3-triazole-4-carboxamide]: in data set [1], the half-inhibitory concentration (IC50) was less than 0.1 µM. In addition, in data set [2] (setting [4]), the EC50 was less than 0.1 µM. In addition, the AUC in data set [3] (rat, read-out: AUC) was 1000 to 10000 ng·h/mL.
For the compound `Cc1cc(N)nc(C)c1CNC(=O)c1cnc(Cc2ccc3ncc(Cl)cc3c2)o1` [Example 114, N-((6-amino-2,4-dimethylpyridin-3-yl)methyl)-2-((3-chloroquinolin-6-yl)methyl)oxazole-5-carboxamide], in data set [2] (setting [4]), the EC50 was less than 0.1 µM. The AUC in data set [3] (rat, read-out: AUC) was in the range of 1000 to 10000 ng·h/mL.

What is called IC50 is the concentration at which inhibition is half-maximal. The EC50 is the concentration giving half of the maximal effect. A word on the AUC: it is concentration integrated over time.
